Data set [1] in a line: Plasma pharmacokinetics after oral Posiphen in humans (LC-MS/MS). Format: in vivo, human. The note with it: human, in vivo, po; for AUC(0-t): read-out: AUC (0-t). As to the method: This paper describes data from multiple studies.
Samples were frozen and then stored at −80 °C.
(§1) The detection limit was 0.025 ng/mL.

Another data set in a line: clinical. The note with it: human, in vivo; for Kp: 80 mg/day; for AUC(0-t) / Cmax: po. As to the method:
This paper describes data from multiple studies. The healthy volunteers’ data come from the single ascending and multiple ascending dose study, whereas Alzheimer’s and Parkinson’s patients are represented by the MCI NCT01072812 study, ADCS NCT02925650 study, and AD/PD NCT04524351 study. The evaluations are based on a sample size of n = 4 for each time point.
In humans, plasma and lumbar CSF samples were collected via an indwelling catheter over 12 h (at 0, 1, 1.5, 2, 3, 4, 6, 8, and 12 h) initiated at the same time of day, 1 day prior to the start of dosing, to obtain time-dependent baseline control data, and then at the exact same times immediately after the last dose was administered. Samples were frozen and then stored at −80 °C.
(§2) In humans, the bioanalytical method was performed in accordance with current FDA, Industry Guidelines, and OECD Principles. […] The sample analysis was conducted in accordance with current GCP and GLP principles, and the results were presented for pharmacokinetic profiling (Absorption Systems, Exton, PA, USA). Calibration ranges for each analyte ranged from 1000 ng/mL to 1 ng/mL (or ng/g for brain) in plasma, brain, and CSF matrices. The detection limit was 0.025 ng/mL. The following PK parameters were collected for the purpose of this manuscript: maximum concentration (Cmax), time to maximum drug concentration (Tmax), half-life (T1/2), and the Area Under the Curve (AUC).

The subject of data set [2] is neurotoxic aggregating proteins. The note with it: cited from earlier work.
Another data set in a line: in vivo. As to the method: (§3) The animal PKs were taken from multiple GLP toxicology studies, biomarker studies, and efficacy studies. […] Sample size (n) represents the number of animals at each time point of sample collection. […] The dose volume was determined according to animals’ weight collected on the dosing day.
(§4) In mice, blood samples were collected via the saphenous vein or other suitable blood collection site into a microcentrifuge tube containing the anti-coagulant K2-EDTA on wet ice and processed for plasma. For samples collected within the first hour of dosing, ±1 min is acceptable, while for all other timepoints, samples were taken within 5% of the scheduled time and are not considered as protocol deviations. Plasma samples were centrifuged (3200× g for 10 min at 4 °C) within an hour of collection. CSF samples were collected with 3 μL volume per time point, frozen on dry ice, and stored at −60 °C for further analysis. For brain collection in mice, animals were euthanized using CO2 inhalation. Whole brain was collected, washed in cold saline, dried, and homogenized immediately […]. Homogenizing buffer MeOH/15 mM PBS (1:2, v:v) was used at a ratio of 1:9 (1 g of tissue with 9 mL of buffer; the dilution ratio is 10).
as §2

A short description of data set [3]: Plasma pharmacokinetics after oral Posiphen in CD-1 mice (LC-MS/MS). The note with it: for AUC(0-t) / Cmax / Tmax: po. How it is done:
as §3, §4, §2
Blood plasma samples were collected at various time points within the initial 8 h following administration (6 h for humans). Plasma concentrations (ng/mL) were measured over the 8 h observation window to characterize the maximum concentration (Cmax), the time to peak drug concentration (Tmax), the half-life (T1/2), and the Area Under the Curve (AUC).

The test system of a further data set is acetylcholinesterase. The note with it: cited from earlier work.
Data set [4] in a line: Plasma pharmacokinetics after oral Posiphen in Beagle dogs (LC-MS/MS). Details: species or system dog. The note with it: dog plasma. As to the method:
In rats and dogs, blood samples were centrifuged, and the resultant plasma was separated, and 200 µL (rat) or 400 µL (dog) of plasma was transferred to uniquely labeled pre-chilled polypropylene tubes containing 5 µL (rat) or 10 µL (dog) Dichlorvos spiking solution (nominal concentration of 0.82 mg/mL in MeOH/Water, 20/80, v/v).
as §1

Setting [5] is: CD-1, mouse, in vivo, po, 65 mg/kg, Cmax, Table 2, mouse CSF, oral Posiphen.
The mark [6] stands for this setting: both, CD-1, mouse, in vivo, 65 mg/kg.

For orientation: Cmax means the peak of the concentration-time curve. Broadly, the AUC(0-t) is exposure summed from dosing to a finite time, without extrapolation to infinity. As usually defined, the half-life is how long it takes for the measured level to halve. Read a low half-life as rapid decline. As a reminder, the Tmax is the time at which the peak concentration occurs.

With `CN1CC[C@]2(C)c3cc(OC(=O)Nc4ccccc4)ccc3NC12` (stereo partly shown) [N8, N8-norposiphen], in data set [1], the Cmax was determined as 30.4 ng/mL and the AUC(0-t) is 260 ng·h/mL. In “clinical”, this molecule registered a half-life of over 12 h, a Kp of 0.17, an AUC(0-t) of 54.9 ng·h/mL and a Cmax of 5.08 ng/mL. In data set [2], the TINAP activity entry is given as “have TINAP”. For the same molecule, in the data set “in vivo” (setting [5]), the highest concentration (Cmax) is 309 ng/mL. In addition, the peak concentration (Cmax) in the data set “in vivo” (CD-1, mouse, po, 65 mg/kg) was determined as 7290 ng/mL. In addition, in data set [3] (setting [6]), the concentration at 0.25 h was 882 ng/mL, the concentration at 0.5 h amounted to 1310 ng/mL, the concentration at 1 h came out at 1560 ng/mL and the concentration at 1.25 h came to 1790 ng/mL. In addition, in data set [3] (setting [6]), the concentration at 1.5 h was found to be 1930 ng/mL, the concentration at 2 h came out at 1830 ng/mL, the concentration at 4 h worked out at 478 ng/mL and the concentration at 12 h stood at 0 ng/mL. In data set [3] (setting [6]), the AUC(0-t) worked out at 5330 ng·h/mL, the concentration peaked (Cmax) at 1930 ng/mL and the Tmax turned out to be 1.5 h. The “Plasma level relative to N1” value in data set [3] (mouse plasma) was 3.8 times. The “Acetylcholinesterase inhibitory (AChEI) activity” value in the data set on acetylcholinesterase is “no acetylcholinesterase inhibitory (AChEI) activity”.
For `CN1c2ccc(OC(=O)Nc3ccccc3)cc2[C@@]2(C)CCNC12` (stereo partly shown) [N1, N1-norposiphen], in data set [1], the Cmax amounted to 24.9 ng/mL and the exposure AUC(0-t) turned out to be 213 ng·h/mL. In “clinical”, this molecule had a Kp of 0.1, an AUC(0-t) of 26.7 ng·h/mL and a peak concentration (Cmax) of 2.56 ng/mL. Besides, the TINAP activity entry in data set [2] is “has both TINAP and AChEI activities”. The same molecule came in with a Cmax in the data set “in vivo” (setting [5]) of 54.5 ng/mL. In addition, the peak concentration (Cmax) in “in vivo” (CD-1, mouse, po, 65 mg/kg) came to 1850 ng/mL. In the data set “in vivo” (Table 2, mouse CSF, oral Posiphen), this molecule returned a maximum concentration (Cmax) of 54.4 ng/mL. Moreover, in data set [3] (setting [6]), the concentration at 0.25 h came out at 350 ng/mL, the concentration at 0.5 h is 484 ng/mL, the concentration at 1 h is 446 ng/mL and the concentration at 1.25 h worked out at 554 ng/mL. In data set [3] (setting [6]), this molecule came in with a concentration at 1.5 h of 525 ng/mL, a concentration at 2 h of 419 ng/mL, a concentration at 4 h of 83.6 ng/mL and a concentration at 8 h of 3.64 ng/mL. For the same molecule, in data set [3] (setting [6]), the concentration at 12 h is 0 ng/mL, the exposure AUC(0-t) was 1400 ng·h/mL, the concentration peaked (Cmax) at 554 ng/mL and the time of peak concentration (Tmax) is 1.25 h. Moreover, in data set [3] (mouse plasma), the “Plasma level relative to N8” value is on record as “a fourth” and the “Plasma level relative to Posiphen” value is “half”. Also, the “Primary compound in plasma” value in data set [4] is on record as “primary compound”. In addition, the “Acetylcholinesterase inhibitory (AChEI) activity” value in the data set with acetylcholinesterase was “has both TINAP and AChEI activities”.
`C[C@]12CCNC1Nc1ccc(OC(=O)Nc3ccccc3)cc12` (stereo partly shown) [N1, N8, N1,N8-norposiphen]: in data set [1], the Cmax stood at 3.66 ng/mL and the AUC(0-t) was 36.9 ng·h/mL.
